# Test results from patent US6887658B2, “Methods of identifying non-specific inhibitors of biomolecules” (Northwestern University, priority 2001, dated 2005).
# Like-named read-outs stand apart in the source and are kept apart here.
# Columns and labels:
# HIV Tar RNA = details: original target; read-out: IC50 Original Target(s): HIV Tar RNA; cited from earlier work
# [1] = Dynamic light scattering (DLS); assay type: physicochemical
# chymotrypsin = chymotrypsin (Bos taurus, UniProt P00766); test: chymotrypsin inhibition enzyme assay; assay type: biochemical
# AmpC β-lactamase [2] = target: T1, AmpC β-lactamase (Escherichia coli, UniProt P00811); details: for ↑ IC50 vs. 10x β-lactamase: 10-fold increase in β-lactamase; for ↑ IC50 vs. 10x Enzyme: β-lactamase 10 nM vs 1 nM
# T1 sequence (P00811 20-377 limits assumed): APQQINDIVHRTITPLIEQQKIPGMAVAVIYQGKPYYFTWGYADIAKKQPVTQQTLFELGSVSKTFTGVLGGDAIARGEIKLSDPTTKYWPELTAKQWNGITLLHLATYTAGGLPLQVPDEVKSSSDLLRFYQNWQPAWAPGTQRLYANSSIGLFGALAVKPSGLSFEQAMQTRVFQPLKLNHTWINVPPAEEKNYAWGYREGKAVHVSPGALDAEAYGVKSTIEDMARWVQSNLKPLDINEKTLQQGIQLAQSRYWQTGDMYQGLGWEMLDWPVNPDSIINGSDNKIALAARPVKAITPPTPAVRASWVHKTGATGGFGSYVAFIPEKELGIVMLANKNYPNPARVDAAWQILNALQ
# AmpC β-lactamase [3] = target: T1, AmpC β-lactamase; test: biochemical
# [4] = assay type: physicochemical; details: 625 μM in 20 mM Tris, pH 7.2
# [5] = tested on: model enzymes (β-lactamase, chymotrypsin, DHFR, β-galactosidase); assay type: biochemical
# prion = details: original target; read-out: IC50 Original Target(s): prion; cited from earlier work
# [6] = target: triosephosphate isomerase (Plasmodium falciparum, UniProt Q07412); details: read-out: IC50 Original Target(s): TIM; cited from earlier work
# triosephosphate isomerase, sequence (Q07412 whole entry): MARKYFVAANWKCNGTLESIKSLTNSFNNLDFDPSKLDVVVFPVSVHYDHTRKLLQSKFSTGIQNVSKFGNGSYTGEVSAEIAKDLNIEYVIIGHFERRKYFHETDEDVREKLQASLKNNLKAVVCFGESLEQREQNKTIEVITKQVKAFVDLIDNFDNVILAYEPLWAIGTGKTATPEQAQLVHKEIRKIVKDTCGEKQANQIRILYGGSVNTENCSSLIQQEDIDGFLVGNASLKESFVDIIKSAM
# insulin receptor = insulin receptor (Homo sapiens, UniProt P06213); details: original target; footnote b: Kd; read-out: Kd Original Target(s): insulin receptor; cited from earlier work
# insulin receptor, sequence (P06213 28-1382, species assumed): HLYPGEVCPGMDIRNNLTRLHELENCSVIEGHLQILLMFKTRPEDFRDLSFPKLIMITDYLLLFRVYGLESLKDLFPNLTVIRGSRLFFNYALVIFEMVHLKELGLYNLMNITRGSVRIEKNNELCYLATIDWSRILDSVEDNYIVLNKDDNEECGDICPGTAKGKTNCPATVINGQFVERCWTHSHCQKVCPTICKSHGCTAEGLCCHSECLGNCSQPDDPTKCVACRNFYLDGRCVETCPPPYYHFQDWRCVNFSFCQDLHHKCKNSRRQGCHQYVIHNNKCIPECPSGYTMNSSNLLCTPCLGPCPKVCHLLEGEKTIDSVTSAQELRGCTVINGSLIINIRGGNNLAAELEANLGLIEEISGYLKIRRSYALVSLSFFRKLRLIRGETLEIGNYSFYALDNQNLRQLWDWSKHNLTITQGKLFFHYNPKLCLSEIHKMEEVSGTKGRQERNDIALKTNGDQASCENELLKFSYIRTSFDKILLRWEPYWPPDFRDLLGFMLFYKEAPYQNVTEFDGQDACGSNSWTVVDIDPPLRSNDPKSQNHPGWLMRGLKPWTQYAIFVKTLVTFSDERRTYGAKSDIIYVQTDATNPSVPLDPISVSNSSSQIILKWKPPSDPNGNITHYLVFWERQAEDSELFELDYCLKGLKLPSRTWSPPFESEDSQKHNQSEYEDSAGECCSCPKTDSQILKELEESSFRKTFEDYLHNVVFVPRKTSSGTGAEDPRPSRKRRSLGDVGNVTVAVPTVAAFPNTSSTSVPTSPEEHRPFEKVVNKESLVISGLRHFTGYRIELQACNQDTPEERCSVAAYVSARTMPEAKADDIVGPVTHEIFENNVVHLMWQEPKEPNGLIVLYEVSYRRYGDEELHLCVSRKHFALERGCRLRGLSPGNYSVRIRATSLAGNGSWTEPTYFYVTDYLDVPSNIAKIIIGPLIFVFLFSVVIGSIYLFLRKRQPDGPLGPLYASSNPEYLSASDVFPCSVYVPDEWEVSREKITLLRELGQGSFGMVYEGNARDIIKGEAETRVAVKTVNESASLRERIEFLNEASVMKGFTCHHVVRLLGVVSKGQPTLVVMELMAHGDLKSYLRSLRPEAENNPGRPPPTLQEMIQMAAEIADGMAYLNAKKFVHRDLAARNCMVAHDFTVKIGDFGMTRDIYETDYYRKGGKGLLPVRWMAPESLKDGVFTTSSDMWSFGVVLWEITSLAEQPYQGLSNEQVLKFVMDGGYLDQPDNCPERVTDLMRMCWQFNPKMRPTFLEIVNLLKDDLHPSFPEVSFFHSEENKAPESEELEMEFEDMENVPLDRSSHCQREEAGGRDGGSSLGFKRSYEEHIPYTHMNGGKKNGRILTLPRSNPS
# β-galactosidase = β-galactosidase (Escherichia coli, UniProt P00722); test: biochemical; details: for ↑ IC50 in the presence of BSA, against β-galactosidase: 0.1 mg/mL BSA
# β-galactosidase, sequence (P00722 2-1024 limits assumed): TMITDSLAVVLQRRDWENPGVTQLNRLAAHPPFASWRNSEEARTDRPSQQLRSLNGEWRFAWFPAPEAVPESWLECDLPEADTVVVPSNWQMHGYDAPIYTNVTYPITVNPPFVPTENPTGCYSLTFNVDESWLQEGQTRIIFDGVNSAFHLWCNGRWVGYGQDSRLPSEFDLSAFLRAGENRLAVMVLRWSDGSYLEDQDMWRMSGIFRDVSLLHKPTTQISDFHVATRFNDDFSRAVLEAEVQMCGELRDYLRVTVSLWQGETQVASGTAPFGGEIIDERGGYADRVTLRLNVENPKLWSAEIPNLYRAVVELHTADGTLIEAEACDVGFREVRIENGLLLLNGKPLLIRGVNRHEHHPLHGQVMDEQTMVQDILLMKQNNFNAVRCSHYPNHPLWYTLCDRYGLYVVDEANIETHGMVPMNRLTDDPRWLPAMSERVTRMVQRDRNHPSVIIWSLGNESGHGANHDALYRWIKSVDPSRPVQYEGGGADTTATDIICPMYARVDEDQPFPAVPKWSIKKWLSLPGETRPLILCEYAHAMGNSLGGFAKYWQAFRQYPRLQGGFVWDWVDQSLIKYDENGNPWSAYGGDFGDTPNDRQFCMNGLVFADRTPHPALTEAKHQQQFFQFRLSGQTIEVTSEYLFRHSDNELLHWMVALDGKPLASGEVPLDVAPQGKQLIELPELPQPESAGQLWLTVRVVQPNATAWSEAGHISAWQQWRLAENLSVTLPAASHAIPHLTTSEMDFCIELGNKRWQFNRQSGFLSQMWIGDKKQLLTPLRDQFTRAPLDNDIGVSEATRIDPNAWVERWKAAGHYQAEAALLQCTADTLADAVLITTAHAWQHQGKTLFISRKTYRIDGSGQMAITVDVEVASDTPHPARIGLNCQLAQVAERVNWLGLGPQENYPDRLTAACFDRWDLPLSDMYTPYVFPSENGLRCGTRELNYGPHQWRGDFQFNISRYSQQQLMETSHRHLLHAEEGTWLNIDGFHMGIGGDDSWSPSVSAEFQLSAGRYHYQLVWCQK
# [7] = target: phosphoinositide 3-kinase; details: original target; read-out: IC50 Original Target(s): PI3K; cited from earlier work
# integrase = details: original target; read-out: IC50 Original Target(s): integrase; cited from earlier work
# thymidylate synthase = details: original target; read-out: IC50 Original Target(s): TS; cited from earlier work
# kinesin = details: original target; read-out: IC50 Original Target(s): kinesin; cited from earlier work
# [8] = tested on: endothelial nitric oxide synthase; details: original target; read-out: IC50 Original Target(s): eNOS; cited from earlier work
# [9] = tested on: neuronal nitric oxide synthase; details: original target; read-out: IC50 Original Target(s): nNOS; cited from earlier work
# [10] = Table 4, 50 mM KPi, at the concentration under DLS conc.
# [11] = Table 6, read-out: IC50 vs. chymo.
# [12] = Table 6, incubation with β-lactamase, 5 min
# [13] = Table 2, 5 min preincubation of inhibitor and enzyme vs none
molecule,measurement,setting,value
O=S(=O)(O)c1cc(O)c(/N=N/c2ccc3ccccc3c2O)c2ccccc12,IC50,HIV Tar RNA,50 µM
O=C1C2C(C(=O)N1Nc1ccc([N+](=O)[O-])cc1[N+](=O)[O-])[C@@]1(Cl)C(Cl)=C(Cl)[C@]2(Cl)C1(Cl)Cl (stereo partly drawn),"Diameter, 5 mM KPi",[1]; DLS in 5 mM KPi,143.5 ± 7.9 nm
same,DLS Diameter,[1]; [10],418.6 ± 38.8 nm
same,DLS Intensity,[1]; [10],24.9 ± 3.1 kcps
O=C(N/N=C/c1ccccc1O)C(=O)N/N=C/c1ccccc1O,"Diameter, 5 mM KPi",[1]; DLS in 5 mM KPi,389.3 ± 55.4 nm
same,"Diameter, 500 mM KPi",[1]; DLS in 500 mM KPi,426.6 ± 23.8 nm
same,DLS Diameter,[1]; [10],394.6 ± 12.5 nm
same,DLS Intensity,[1]; [10],26.4 ± 5.1 kcps
O=C(O)c1cc(-c2ccc(Cl)cc2)nc(-c2ccc(Nc3ccc(Cl)cc3)cc2)c1,IC50,chymotrypsin; [11],2 µM
same,↑ IC50 vs. 10x β-lactamase,AmpC β-lactamase [2]; Table 6,4-fold
same,↓ IC50 with Incubation,AmpC β-lactamase [2]; [12],12-fold
same,IC50,AmpC β-lactamase [3],2 µM
CC(C)(C)c1ccc(-c2cc(C(=O)O)cc(-c3ccc(Cl)c(O)c3)n2)cc1,IC50,chymotrypsin; [11],13 µM
same,↑ IC50 vs. 10x β-lactamase,AmpC β-lactamase [2]; Table 6,12-fold
same,↓ IC50 with Incubation,AmpC β-lactamase [2]; [12],>50-fold
same,IC50,AmpC β-lactamase [3],4 µM
CCCC[n+]1ccc(-c2cc(C(=O)O)cc(-c3ccc(Cl)cc3)n2)cc1,↑ IC50 vs. 10x β-lactamase,AmpC β-lactamase [2]; Table 6,20-fold
same,↓ IC50 with Incubation,AmpC β-lactamase [2]; [12],24-fold
same,IC50,AmpC β-lactamase [3],8 µM
O=C1Nc2cccc(O)c2C1Cc1ccc2c(c1)CCCC2 (stereo not drawn),IC50,chymotrypsin; [11],40 µM
same,↑ IC50 vs. 10x β-lactamase,AmpC β-lactamase [2]; Table 6,6-fold
same,↓ IC50 with Incubation,AmpC β-lactamase [2]; [12],3-fold
same,IC50,AmpC β-lactamase [3],15 µM
O=S(=O)(O)Cc1cc2cc(S(=O)(=O)O)c(/N=N/c3ccc(Br)cc3S(=O)(=O)O)c(O)c2c(O)c1/N=N/c1ccc(Br)cc1S(=O)(=O)O,↑ IC50 vs. 10x β-lactamase,AmpC β-lactamase [2]; Table 6,>50-fold
same,↓ IC50 with Incubation,AmpC β-lactamase [2]; [12],2-fold
same,IC50,AmpC β-lactamase [3],80 µM
CC(C)c1ccc(/C=C2/C(=O)Nc3ccccc32)cc1 [3-(4-isopropylbenzylidene)indolin-2-one],"Diameter, 5 mM KPi",[1]; DLS in 5 mM KPi,247.1 ± 12.8 nm
same,"Diameter, 500 mM KPi",[1]; DLS in 500 mM KPi,494.3 ± 48.1 nm
same,DLS Diameter,[1]; [10],379.0 ± 14.1 nm
same,DLS Intensity,[1]; [10],43.8 ± 5.7 kcps
"O=S(=O)(O)c1cccc2cccc(Nc3ccccc3)c12 [ANS, 8-anili-no-1-naphthalene-sulfonic acid]",DLS Diameter,[1],No particles
same,DLS Intensity,[1],0.5 ± 0.1 kcps
same,"Diameter, 5 mM KPi",[1],No particles
same,"Diameter, 50 mM KPi",[1],No particles
same,"Diameter, 500 mM KPi",[1],No particles
same,particles observed by TEM,[4],Particles were not observed
same,inhibition of the model enzymes,[5],does not inhibit the model enzymes
OB(O)c1cc2ccccc2s1 [Benzo[b]thiophene-2-boronic acid],particle formation in solution by DLS (autocorrelation function),[1]; 50 mM KPi,not observed to form particles
same,"Diameter, 5 mM KPi",[1]; DLS in 5 mM KPi,No particles
same,"Diameter, 50 mM KPi",[1]; DLS in 50 mM KPi,No particles
same,"Diameter, 500 mM KPi",[1]; DLS in 500 mM KPi,No particles
same,DLS Diameter,[1]; [10],No particles
same,DLS Intensity,[1]; [10],0.9 ± 0.2 kcps
same,↓ IC50 with Incubation,AmpC β-lactamase [2]; [13],No change
same,↑ IC50 vs. 10x Enzyme,AmpC β-lactamase [2]; Table 2,No change
Nc1c(/N=N/c2ccc(-c3ccc(/N=N/c4cc(S(=O)(=O)O)c5ccccc5c4N)cc3)cc2)cc(S(=O)(=O)O)c2ccccc12 [Congo Red],DLS Diameter,[1],202.6 ± 22.5 nm
same,DLS Intensity,[1],131.1 ± 64.3 kcps
same,particle formation in solution by DLS (autocorrelation function),[1],did form particles detectable by DLS
same,inhibition of the model enzymes,[5],inhibit the model enzymes
same,IC50,prion,1 µM
same,IC50,[6],30.4 µM
O=C1OC2(c3cc(I)c(O)c(I)c3Oc3c2cc(I)c(O)c3I)c2c(Cl)c(Cl)c(Cl)c(Cl)c21 [Rose Bengal lactone],Kd,insulin receptor,20 µM
O=C1O/C(=C\Nc2ccc(Oc3ccccc3)cc2)c2ccccc21 [drawing 3],IC50,AmpC β-lactamase [3],5 µM
Oc1ccc(/N=N/c2ccc(Br)cc2)cc1 [drawing 33],"↑ IC50 in the presence of BSA, against β-galactosidase",β-galactosidase,8 fold
O=C1O/C(=C\Nc2ccc(Oc3ccccc3)cc2)c2ccccc21 [drawing 34],"↑ IC50 in the presence of BSA, against β-galactosidase",β-galactosidase,9 fold
Oc1ccc(/N=N/c2ccc(Br)cc2)cc1 [drawing 40],"Diameter, 5 mM KPi",[1]; DLS in 5 mM KPi,140.2 ± 12.1 nm
same,"Diameter, 500 mM KPi",[1]; DLS in 500 mM KPi,267.4 ± 24.5 nm
same,DLS Diameter,[1]; [10],176.2 ± 7.9 nm
same,DLS Intensity,[1]; [10],12.6 ± 3.9 kcps
O=C1O/C(=C\Nc2ccc(Oc3ccccc3)cc2)c2ccccc21 [drawing 41],DLS Diameter,[1]; [10],94.7 ± 4.2 nm
same,DLS Intensity,[1]; [10],16.2 ± 1.1 kcps
O=c1c(O)c(-c2ccc(O)c(O)c2)oc2cc(O)cc(O)c12 [quercetin],IC50,"β-galactosidase; Table 1, 37° C.",220 µM
same,IC50,[7],3.8 µM
same,IC50,integrase,11 µM
O=C1C(I)=CC(=C(c2cc(I)c(O)c(I)c2)c2ccccc2C(=O)O)C=C1I [tetraiodophenolphthalein],particle formation in solution by DLS (autocorrelation function),[1]; 50 mM KPi,presence of particles
same,"Diameter, 5 mM KPi",[1]; DLS in 5 mM KPi,86.2 ± 10.5 nm
same,"Diameter, 500 mM KPi",[1]; DLS in 500 mM KPi,320.4 ± 38.8 nm
same,DLS Diameter,[1]; [10],153.4 ± 26.0 nm
same,DLS Intensity,[1]; [10],42.2 ± 3.9 kcps
same,DLS mean diameter in the TEM conditions,[1]; same conditions as TEM,83.2 ± 6.5 nm
same,IC50,thymidylate synthase,3 µM
same,IC50,kinesin,30 µM
tris (dicarboxymethylene) fullerene-C3,IC50,"chymotrypsin; Table 1, read-out: IC50 Chymotrypsin",60 µM
same,↓ IC50 with Incubation,AmpC β-lactamase [2]; [13],2-fold
same,↑ IC50 vs. 10x Enzyme,AmpC β-lactamase [2]; Table 2,>50-fold
same,IC50,"AmpC β-lactamase [2]; read-out: IC50 β-lactamase, Table 1, 50 mM KPi pH 7.0, 5 min incubation, 1 nM enzyme",7 µM
same,IC50,[8],17 µM
same,IC50,[9],24 µM
